The target of assay [1] is T1, phthalyl amidase (Xanthobacter agilis, UniProt P0C2Y0).
T1 construct: 42-aa signal peptide removed
Kind of assay: Influence of effectors and organic solvents on enzyme activity. It is filed as biochemical. To be noted: for remaining activity at 1 % / remaining activity at 5 % / remaining activity at 10 %: 20 min, read-out: % Residual enzyme activity. Here is the method: A typical reaction mixture consisted of 1 ml total volume and contained 0.1 mM III, 0.1 μM phthalyl amidase in 50 mM potassium phosphate buffer (pH 5.5-9.0) at 32° C. for 20 minutes. The reactions were stopped by the addition of 1 ml methanol. After removal of precipitate by centrifugation, an aliquot of the supernatant fraction (typically 30 μ) was monitored for the beta-lactam nucleus and phthalic acid by HPLC using a Zorbax C8 column (0.46×15 cm; MacMod Analytical Inc., Chadds Ford, Pa.). The two reaction products were eluted by a mobile phase constructed as continuous mixed gradients from (a) 1% ACN (acetonitrile)/0.2% TFA (trifluoroacetic acid) and (b) 80% ACN/0.2% TFA as follows: 1) 0% (b), 3 min; 2) 0-50% (b), 0.5 min; 3) 50-100% (b), 3 min; 4) 100% (b), 2.5 min; 5) 100-0% (b), 0.1 min; and 6) 0% (b), 5 min.
The effect of various agents on the enzymatic activity of phthalyl amidase was determined using standard conditions (see Example 5). All agents were tested at 1 mM final concentration unless otherwise indicated.

For assay [2], the target named is T1, phthalyl amidase. Kind of assay: Substrate specificity: chemical structure requirements for enzyme activity. The assay is classed as biochemical. The settings on record: for suitability as substrate (in words): Tables 10 and 11; for Relative Activity: 2.5 μmol compound, 0.3 units enzyme. Here is the method:
The activity of phthalyl amidase against 25 compounds was determined. The compounds were divided into beta-lactams (Table 9), phthalyl amides (Table 10), and aromatic ring substituted amides (Table 11). Each reaction mixture (1 ml total volume) contained 2.5 μmol of compound and 0.3 units of enzyme (based on the chromogenic substrate) of the preparative scale purified enzyme, in 50 mM phosphate buffer, pH 8.0. The reactions were conducted at 30° C. Samples of the reaction mixture were taken at various times, and methanol (equal volume) was added to stop the reaction. The samples were examined by HPLC to determine the extent of substrate hydrolysis. The amount of compound hydrolyzed was calculated from a standard curve of the test compound. All substrates were stable in buffer at 30° C. and pH 8.0 in the absence of enzyme for 24 hours.

[3] abbreviates: agent at 1 mM final concentration, read-out: % of Control Activity.
Setting [4] is: agent at 1 mM final concentration.
The mark [5] stands for this setting: read-out: % of Control Activity.
Where [6] appears, read: Table 9 beta-lactams, III = 100, 50 mM phosphate pH 8.0, 30° C.
Setting [7] is: 1 mM unless otherwise indicated, iodoacetic acid 10 mM.
Setting [8] is: Table 11 aromatic ring substituted amides, XVII = 100.0, pH 8.0, 30° C.

“Also recorded” adds a separate entry of the source. Like-named read-outs stand apart in the source and are kept apart here.

T1 sequence (P0C2Y0 2-453): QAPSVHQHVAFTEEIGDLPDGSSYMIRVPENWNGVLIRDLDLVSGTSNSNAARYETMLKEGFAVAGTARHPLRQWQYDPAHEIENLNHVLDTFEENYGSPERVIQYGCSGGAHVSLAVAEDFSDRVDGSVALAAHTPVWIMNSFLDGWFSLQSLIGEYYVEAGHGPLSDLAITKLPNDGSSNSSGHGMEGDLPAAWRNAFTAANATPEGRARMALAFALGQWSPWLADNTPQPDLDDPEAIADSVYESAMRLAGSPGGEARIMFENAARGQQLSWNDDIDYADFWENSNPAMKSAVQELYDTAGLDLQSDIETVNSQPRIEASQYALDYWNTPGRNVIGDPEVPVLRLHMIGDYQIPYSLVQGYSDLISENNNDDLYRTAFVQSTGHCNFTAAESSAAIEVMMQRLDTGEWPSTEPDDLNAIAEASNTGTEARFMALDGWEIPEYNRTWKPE

With `O[C@H](CS)[C@H](O)CS` (racemic) [DTT, dithiothreitol], the remaining activity at 1000 µM in assay [1] (setting [3]) was found to be 100%. Consider `Nc1ncnc2c1ncn2[C@@H]1O[C@H](COP(=O)(O)OP(=O)(O)OP(=O)(O)O)[C@@H](O)[C@H]1O` [ATP, adenosine 5triphosphate], for which the remaining activity at 1000 µM in assay [1] (setting [3]) is 96%.

Turning to `[Ca+2].[Cl-].[Cl-]` [CaCl2], the “% of Control Activity” value in assay [1] (setting [4]) came out at 89%.

As to `CC(C)(COP(=O)(O)OP(=O)(O)OC[C@H]1O[C@@H](n2cnc3c(N)ncnc32)[C@H](O)[C@@H]1OP(=O)(O)O)[C@@H](O)C(=O)NCCC(=O)NCCS` [CoASH], the remaining activity at 1000 µM in assay [1] (setting [3]) amounted to 102%. In the case of `CCCCCCC(C(=O)O)n1cnc(NC(=O)c2ncccc2C(=O)O)c1` (stereo not drawn) [Compound XX], the “suitability as substrate (in words)” value in assay [2] is listed as “acceptable”. `[Cl][Cu][Cl]` [CuCl2]: the “effect on enzyme activity (in words)” value in assay [1] (1 mM unless otherwise indicated, iodoacetic acid 10 mM, listed as Cu^++) is “significantly inhibited”; in assay [1] (1 mM unless otherwise indicated, iodoacetic acid 10 mM, listed as copper ions), “significantly reduced”. Further, in assay [1] (setting [4]), the “% of Control Activity” value is given as 36%. With `C[S+](C)[O-]` [DMSO, dimethyl sulfoxide], the remaining activity at 1 % in assay [1] (solvent 1.0%) amounted to 101%. Besides, the remaining activity at 5 % in assay [1] (solvent 5.0%) was 80%. The remaining activity at 10 % in assay [1] (solvent 10.0%) is 71%.

`O=C(O)c1cc(SSc2ccc([N+](=O)[O-])c(C(=O)O)c2)ccc1[N+](=O)[O-]` [DTNB, dithionitrobenzoate]: in assay [1] (setting [3]), the remaining activity at 1000 µM was 98%.

Regarding `O=C(O)CN(CCN(CC(=O)O)CC(=O)O)CC(=O)O` [EDTA], in assay [1], the “effect on enzyme activity (in words)” value is listed as “little or no effect”. Besides, in assay [1] (setting [5]), the remaining activity at 1000 µM worked out at 103%. As to `CCO` [Ethanol], in assay [1], the remaining activity at 1 % came out at 99%, the remaining activity at 5 % came out at 85% and the remaining activity at 10 % stood at 45%.

Regarding `Cc1cc2nc3c(=O)[nH]c(=O)nc-3n(C[C@H](O)[C@H](O)[C@H](O)COP(=O)(O)OP(=O)(O)OC[C@H]3O[C@@H](n4cnc5c(N)ncnc54)[C@H](O)[C@@H]3O)c2cc1C` [FAD, flavin adenine dinucleotide], the remaining activity at 1000 µM in assay [1] (setting [3]) worked out at 101%. Turning to `[Cl][Fe]([Cl])[Cl]` [FeCl3], the “% of Control Activity” value in assay [1] (setting [4]) is given as 96%. For `OCC(O)CO` [Glycerol], the remaining activity at 1 % in assay [1] (solvent 1.0%) amounted to 100%. In assay [1] (solvent 5.0%), the remaining activity at 5 % was determined as 94%. Moreover, in assay [1] (solvent 10.0%), the remaining activity at 10 % was determined as 85% and the “% Residual enzyme activity” value is on record as “least amount of inhibition”. Compound `O=C(O)CN1C(=O)C(NC(=O)COc2ccccc2)C1CCc1ccco1` (stereo not drawn) [IV] displayed a Relative Activity in assay [2] (setting [6]) of 0. Consider `O=C(O)CI` [Iodoacetate], for which the “effect on enzyme activity (in words)” value in assay [1] is “significantly reduced; also recorded: significantly inhibited”. In addition, in assay [1] (setting [5]), the remaining activity at 1000 µM turned out to be 91% and the remaining activity at 10000 µM is 46%. Consider `[Cl-].[K+]` [KCl], for which the “% of Control Activity” value in assay [1] (setting [4]) was determined as 100%. Consider `OCCS` [Mercaptoethanol], for which the remaining activity at 1000 µM in assay [1] (setting [3]) was 105%. Regarding `CO` [Methanol], the remaining activity at 1 % in assay [1] (solvent 1.0%) was 100%. Further, the remaining activity at 5 % in assay [1] (solvent 5.0%) came to 90%. Besides, the remaining activity at 10 % in assay [1] (solvent 10.0%) was 69%. For `[Cl][Mn][Cl]` [MnCl2], the “% of Control Activity” value in assay [1] (setting [4]) is listed as 84%.

Take `NC(=O)c1ccc[n+]([C@@H]2O[C@H](COP(=O)([O-])OP(=O)(O)OC[C@H]3O[C@@H](n4cnc5c(N)ncnc54)[C@H](O)[C@@H]3O)[C@@H](O)[C@H]2O)c1` [NAD, nicotinamide adenine nucleotide]: the remaining activity at 1000 µM in assay [1] (setting [3]) was 101%. Still for that read-out and setting: under `NC(=O)C1=CN([C@@H]2O[C@H](COP(=O)(O)OP(=O)(O)OC[C@H]3O[C@@H](n4cnc5c(N)ncnc54)[C@H](O)[C@@H]3O)[C@@H](O)[C@H]2O)C=CC1` [NADH] stands 96%; under `NC(=O)c1ccc[n+]([C@@H]2O[C@H](COP(=O)([O-])OP(=O)(O)OC[C@H]3O[C@@H](n4cnc5c(N)ncnc54)[C@H](OP(=O)(O)O)[C@@H]3O)[C@@H](O)[C@H]2O)c1` [NADP, nicotinamide adenine dinucleotide phosphate], 99%.

For `NC(=O)C1=CN([C@@H]2O[C@H](COP(=O)(O)OP(=O)(O)OC[C@H]3O[C@@H](n4cnc5c(N)ncnc54)[C@H](OP(=O)(O)O)[C@@H]3O)[C@@H](O)[C@H]2O)C=CC1` [NADPH], the remaining activity at 1000 µM in assay [1] (setting [3]) was determined as 99%. Same read-out and setting: under `CCN1C(=O)C=CC1=O` [NEM, Nethylmaleimide] stands 100%. Turning to `[Cl][Ni][Cl]` [NiCl2], the “% of Control Activity” value in assay [1] (setting [4]) is 94%. Take `Cc1ncc(COP(=O)(O)O)c(C=O)c1O` [PLP, pyridoxyl5-phosphate]: in assay [1] (setting [3]), the remaining activity at 1000 µM was 106%. As to `c1cnc2c(c1)ccc1cccnc12` [Phenanthroline], in assay [1] (setting [7]), the “effect on enzyme activity (in words)” value was “little or no effect”. The remaining activity at 1000 µM in assay [1] (setting [3]) was determined as 104%.

Consider `Nc1nc2c(c(=O)[nH]1)N[C@H](CNc1ccc(C(=O)N[C@@H](CCC(=O)O)C(=O)O)cc1)CN2` [THF, tetrahydrofolate], for which the remaining activity at 1000 µM in assay [1] (setting [3]) is 100%. As to `O=C(O)CN1C(=O)C(NC(=O)c2ccccc2)C1CCc1ccco1` (stereo not drawn) [VI], in assay [2] (setting [6]), the Relative Activity stood at 0. For `O=C(O)CN1C(=O)C(NC(=O)Cc2ccccc2)C1CCc1ccco1` (stereo not drawn) [V], the Relative Activity in assay [2] (setting [6]) is on record as 0. In the case of `CCCCCCC(C(=O)O)n1cnc(NC(=O)c2ccccc2C(=O)O)c1` (stereo not drawn) [XIII], the “suitability as substrate (in words)” value in assay [2] was “most active compound found”. For `CC(C)NC(=O)c1ccccc1C(=O)O` [XII], the “Relative Activity” value in assay [2] (Table 10 phthalyl amides, III = 100.0, 50 mM phosphate pH 8.0, 30° C.) is listed as 9.7. Turning to `CCCCCCC(C(=O)O)n1cnc(NC(=O)c2ccccc2C(=O)O)c1` (stereo not drawn) [XVII], the “Relative Activity” value in assay [2] (setting [8]) came to 100.0. For `CCCCCCC(C(=O)O)n1cnc(NC(=O)c2ccc(C(=O)O)cc2)c1` (stereo not drawn) [XXIII], the “Relative Activity” value in assay [2] (setting [8]) is 0. Also, in assay [2], the “suitability as substrate (in words)” value is given as “completely eliminates hydrolytic activity”. As to `CCCCCCC(C(=O)O)n1cnc(NC(=O)c2ccccc2-c2nn[nH]n2)c1` (stereo not drawn) [XXII], in assay [2] (setting [8]), the “Relative Activity” value is reported as 0.2. Besides, the “suitability as substrate (in words)” value in assay [2] is “Low levels of hydrolysis”. As to `CCCCCCC(C(=O)O)n1cnc(NC(=O)c2cccc(C(=O)O)c2)c1` (stereo not drawn) [XXIV], in assay [2] (setting [8]), the “Relative Activity” value is given as 0. For the same compound, the “suitability as substrate (in words)” value in assay [2] was “completely eliminates hydrolytic activity”. For `CCCCCCC(C(=O)O)n1cnc(NC(=O)c2cccc(O)c2C(=O)O)c1` (stereo not drawn) [XXI], the “Relative Activity” value in assay [2] (setting [8]) came to 1.3. For the same compound, the “suitability as substrate (in words)” value in assay [2] is “acceptable”. As for `CCCCCCC(C(=O)O)n1cnc(NC(=O)c2ccccc2)c1` (stereo not drawn) [XXVIII], the “Relative Activity” value in assay [2] (setting [8]) came out at 0. On to `CCCCCCC(C(=O)O)n1cnc(NC(=O)c2cc(O)cc(O)c2)c1` (stereo not drawn) [XXVII], for which the “Relative Activity” value in assay [2] (setting [8]) is recorded as 0. As for `CCCCCCC(C(=O)O)n1cnc(NC(=O)c2cccc(O)c2)c1` (stereo not drawn) [XXVI], the “Relative Activity” value in assay [2] (setting [8]) is 0. `CCCCCCC(C(=O)O)n1cnc(NC(=O)c2ccccc2O)c1` (stereo not drawn) [XXV]: the “Relative Activity” value in assay [2] (setting [8]) is on record as 0. `[Cl-].[Cl-].[Zn+2]` [ZnCl2]: the “% of Control Activity” value in assay [1] (setting [4]) stood at 100%. Take `O=C(O)c1cc[c]([Hg][OH])cc1` [p-HMB, parahydroxy mercuric benzoate]: the “effect on enzyme activity (in words)” value in assay [1] (setting [7]) is recorded as “significantly reduced; also recorded: significantly inhibited”. Further, the “% of Control Activity” value in assay [1] (setting [4]) came out at 65%.

For the origin of these results see patent US5451522A, “Genes encoding and method of expressing an enzyme: phthalyl amidase” (priority 1994, dated 1995).
